{"source": "patent US11246945B2", "about": "“Cisplatin-loaded microbubbles, pharmaceutical composition for treatment of cancer, method for preparing pharmaceutical compositions and method for treating cancer” (National Defense Medical Center, priority 2019, dated 2022)", "key": {"[1]": {"test_system": "FaDu-fLuc/GFP tumor xenograft", "test": "Anti-tumor effect on head and neck cancer xenograft (IVIS bioluminescence)", "assay_type": "in vivo, SCID mice", "settings": "Day 33; without ultrasound exposure", "description": "Severe combined immunodeficiency (SCID) mice were subcutaneously implanted with luminescence-labelled hypopharynx carcinoma cell line (FaDu-fLuc/GFP) (2×10^6 cells/mouse) into the right flank region on Day 0. On Day 4, tumor xenograft formation and size in implanted SCID mice were determined by IVIS® bioluminescence imaging system (version 4.4, Caliper Life Sciences, Alameda, Calif., USA). The implanted SCID mice were then classified into group I to group V (hereinafter referred to as “Gps I-V”), and the implanted SCID mice of each group were treated with different pharmaceutical compositions, which are summarized in Table 6 below. Specifically, the mice of Gp I was the control group, and was treated with saline. The mice of Gp II were treated with cisplatin dissolved in saline. The mice of Gp III were treated with saline containing the mixture of cisplatin and albumin microbubbles (concentration: 1.4×10^8 particles/mL), followed by ultrasound exposure (power: 3 W/cm^2, 30 seconds). […] The anti-tumor effect of cisplatin-based chemotherapy was evaluated in vivo on the growth of head and neck cancer by twice-weekly recordings of luciferase bioluminescence data derived from IVIS® images. On day 33, after the IVIS® images of the mice were obtained, the mice were sacrificed and analysed."}, "[2]": {"test": "Body weight during the 33-day treatment", "assay_type": "in vivo, SCID mice", "settings": "33-day treatment period; without ultrasound", "description": "Severe combined immunodeficiency (SCID) mice were subcutaneously implanted with luminescence-labelled hypopharynx carcinoma cell line (FaDu-fLuc/GFP) (2×10^6 cells/mouse) into the right flank region on Day 0. On Day 4, tumor xenograft formation and size in implanted SCID mice were determined by IVIS® bioluminescence imaging system (version 4.4, Caliper Life Sciences, Alameda, Calif., USA). The implanted SCID mice were then classified into group I to group V (hereinafter referred to as “Gps I-V”), and the implanted SCID mice of each group were treated with different pharmaceutical compositions, which are summarized in Table 6 below. Specifically, the mice of Gp I was the control group, and was treated with saline. The mice of Gp II were treated with cisplatin dissolved in saline. The mice of Gp III were treated with saline containing the mixture of cisplatin and albumin microbubbles (concentration: 1.4×10^8 particles/mL), followed by ultrasound exposure (power: 3 W/cm^2, 30 seconds). […] The anti-tumor effect of cisplatin-based chemotherapy was evaluated in vivo on the growth of head and neck cancer by twice-weekly recordings of luciferase bioluminescence data derived from IVIS® images. On day 33, after the IVIS® images of the mice were obtained, the mice were sacrificed and analysed. […]"}, "head and neck cancers": {"test_system": "head and neck cancers", "settings": "patients with head and neck cancers; cited from earlier work"}, "[3]": {"settings": "intraperitoneal, single 14 mg/kg or 4.6 mg/kg/day for three consecutive days; cited from earlier work"}}, "data": [{"smiles": "N.N.[Cl][Pt][Cl]", "note": "[CDDP, Cis-Diamine platinum (II) Dichloride]", "values": [{"measurement": "Tumor reduction / inhibition of tumor growth (luminescence flux)", "setting": "[1]", "value": "significantly better outcomes as compared to Gp IV"}, {"measurement": "Body weight gain compared with Gp I, Gp IV and Gp V", "setting": "[2]", "value": "statistically smaller body weight gain"}, {"measurement": "Median survival time", "setting": "head and neck cancers", "value": 151, "unit": "days"}, {"measurement": "Hearing threshold", "setting": "[3]", "value": "caused a hearing threshold shift"}]}]}
